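Assay format: 96-well plates, 48-hour exposure. At the GI50, growth is halved. The concentration for full growth arrest is given as TGI.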
Tests used:
Test in all cases: NCI-60 cell line screen, 48 h
[1] = test system: HCT-15 colon
[2] = test system: UACC-62 melanoma
[3] = test system: RPMI-8226 leukemia
[4] = test system: DU-145 prostate
[5] = test system: 786-0 renal
[6] = test system: OVCAR-5 ovarian
[7] = test system: IGROV1 ovarian
[8] = test system: RXF 393 renal
[9] = test system: SK-MEL-28 melanoma
[10] = test system: HL-60(TB) leukemia
[11] = test system: MOLT-4 leukemia
[12] = test system: NCI-H522 lung
[13] = test system: K-562 leukemia
[14] = test system: SNB-19 CNS
[15] = test system: BT-549 breast
[16] = test system: KM12 colon
[17] = test system: SF-539 CNS
[18] = test system: A498 renal
[19] = test system: NCI-H226 lung
[20] = test system: HOP-92 NSCLC
[21] = test system: OVCAR-8 ovarian
[22] = test system: SK-OV-3 ovarian
[23] = test system: HCT-116 colon
[24] = test system: SR leukemia
[25] = test system: SK-MEL-5 melanoma
[26] = test system: SN12C renal
[27] = test system: TK-10 renal
[28] = test system: UO-31 renal
[29] = test system: SW-620 colon
[30] = test system: M14 melanoma
[31] = test system: HOP-62 NSCLC
[32] = test system: T-47D breast
[33] = test system: PC-3 prostate
[34] = test system: SNB-75 CNS
[35] = test system: NCI-H23 lung
[36] = test system: UACC-257 melanoma
[37] = test system: MDA-MB-231 breast
[38] = test system: SF-295 CNS
[39] = test system: A549 NSCLC
[40] = test system: EKVX NSCLC
[41] = test system: CCRF-CEM leukemia
[42] = test system: COLO 205 colon
[43] = test system: HCC-2998 colon
[44] = test system: MDA-MB-435
[45] = test system: NCI/ADR-RES ovarian
[46] = test system: ACHN renal
[47] = test system: CAKI-1 renal
[48] = test system: HS 578T breast
[49] = test system: MCF7 breast
[50] = test system: OVCAR-3 ovarian
[51] = test system: SK-MEL-2 melanoma
[52] = test system: LOX IMVI melanoma
[53] = test system: NCI-H460 lung
[54] = test system: U251 CNS
[55] = test system: SF-268 CNS

O=c1cccc(C#CC#C[C@H]2O[C@@H]2CO)o1
GI50 [1]: 353 nM | TGI [1]: 1290 nM | GI50 [2]: 209 nM | TGI [2]: 531 nM | GI50 [3]: 101 nM | TGI [3]: 331 nM | GI50 [4]: 1560 nM | TGI [4]: 3240 nM | GI50 [5]: 637 nM | TGI [5]: 1540 nM | GI50 [6]: 1730 nM | TGI [6]: 3570 nM | GI50 [7]: 624 nM | TGI [7]: 1850 nM | GI50 [8]: 448 nM | TGI [8]: 1740 nM | GI50 [9]: 370 nM | TGI [9]: 1710 nM | GI50 [10]: 1470 nM | TGI [10]: > 100000 nM | GI50 [11]: 154 nM | TGI [11]: > 100000 nM | GI50 [12]: 3560 nM | TGI [12]: > 100000 nM | GI50 [13]: 182 nM | TGI [13]: > 100000 nM | GI50 [14]: 6240 nM | TGI [14]: 14400 nM | GI50 [15]: 1190 nM | TGI [15]: 3020 nM | GI50 [16]: 986 nM | TGI [16]: 3470 nM | GI50 [17]: 1070 nM | TGI [17]: 2840 nM | GI50 [18]: 2030 nM | TGI [18]: 4340 nM | GI50 [19]: 309 nM | TGI [19]: 1110 nM | GI50 [20]: 285 nM | TGI [20]: 531 nM | GI50 [21]: 341 nM | TGI [21]: 1430 nM | GI50 [22]: 2660 nM | TGI [22]: 7180 nM | GI50 [23]: 638 nM | GI50 [24]: 240 nM | TGI [24]: > 100000 nM | GI50 [25]: 1500 nM | TGI [25]: 2950 nM | GI50 [26]: 149 nM | TGI [26]: 333 nM | GI50 [27]: 495 nM | TGI [27]: 1930 nM | GI50 [28]: 2590 nM | TGI [28]: 6290 nM | GI50 [29]: 238 nM | TGI [29]: 596 nM | GI50 [30]: 1230 nM | GI50 [31]: 423 nM | TGI [31]: 1540 nM | GI50 [32]: 401 nM | TGI [32]: 1470 nM | GI50 [33]: 664 nM | TGI [33]: 2010 nM | GI50 [34]: 1890 nM | TGI [34]: 3520 nM | GI50 [35]: 347 nM | TGI [35]: 1210 nM | GI50 [36]: 1160 nM | TGI [36]: 2910 nM | GI50 [37]: 419 nM | TGI [37]: 1020 nM | GI50 [38]: 1700 nM | TGI [38]: 3770 nM | GI50 [39]: 1770 nM | TGI [39]: 3640 nM | GI50 [40]: 1970 nM | TGI [40]: 4180 nM | GI50 [41]: 170 nM | TGI [41]: 431 nM | GI50 [42]: 665 nM | TGI [42]: 1580 nM | GI50 [43]: 788 nM | TGI [43]: 2190 nM | GI50 [44]: 474 nM | TGI [44]: 1210 nM | GI50 [45]: 927 nM | TGI [45]: 3370 nM | GI50 [46]: 322 nM | TGI [46]: 985 nM | GI50 [47]: 189 nM | TGI [47]: 359 nM | GI50 [48]: 2910 nM | TGI [48]: 9690 nM | GI50 [49]: 472 nM | TGI [49]: 4280 nM | GI50 [50]: 286 nM | TGI [50]: 689 nM | GI50 [51]: 5530 nM | TGI [51]: > 21000 nM | GI50 [52]: 310 nM | TGI [52]: 901 nM | GI50 [53]: 1080 nM | TGI [53]: 6740 nM | GI50 [54]: 355 nM | TGI [54]: 958 nM | GI50 [55]: 2490 nM | TGI [55]: 7510 nM

— PubChem BioAssay (NCI)
